Assay results published in PubChem BioAssay (NCI).
“And” between values parts separate entries of the source, which are not always exact repeats. Equal entries are not always repeated.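 These data come from cells grown in 96-well plates and exposed to compound for 48 hours at five concentrations. GI50 marks 50% less growth. TGI marks complete inhibition of growth.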

Legend:
Test in all cases: NCI-60 cell line screen, 48 h
MDA-N = system: MDA-N
786-0 renal = system: 786-0 renal
UO-31 renal = system: UO-31 renal
CAKI-1 renal = system: CAKI-1 renal
KM12 colon = system: KM12 colon
SK-OV-3 ovarian = system: SK-OV-3 ovarian
SF-295 CNS = system: SF-295 CNS
NCI/ADR-RES ovarian = system: NCI/ADR-RES ovarian
SNB-75 CNS = system: SNB-75 CNS
SK-MEL-2 melanoma = system: SK-MEL-2 melanoma
UACC-257 melanoma = system: UACC-257 melanoma
NCI-H460 lung = system: NCI-H460 lung
PC-3 prostate = system: PC-3 prostate
ACHN renal = system: ACHN renal
NCI-H23 lung = system: NCI-H23 lung
HOP-92 NSCLC = system: HOP-92 NSCLC
DU-145 prostate = system: DU-145 prostate
MALME-3M melanoma = system: MALME-3M melanoma
NCI-H226 lung = system: NCI-H226 lung
HS 578T breast = system: HS 578T breast
MDA-MB-231 breast = system: MDA-MB-231 breast
HCT-116 colon = system: HCT-116 colon
A549 NSCLC = system: A549 NSCLC
SK-MEL-5 melanoma = system: SK-MEL-5 melanoma
IGROV1 ovarian = system: IGROV1 ovarian
NCI-H522 lung = system: NCI-H522 lung
OVCAR-8 ovarian = system: OVCAR-8 ovarian
OVCAR-5 ovarian = system: OVCAR-5 ovarian
K-562 leukemia = system: K-562 leukemia
SNB-19 CNS = system: SNB-19 CNS
BT-549 breast = system: BT-549 breast
UACC-62 melanoma = system: UACC-62 melanoma
M14 melanoma = system: M14 melanoma
HT29 colon = system: HT29 colon
SF-539 CNS = system: SF-539 CNS
EKVX NSCLC = system: EKVX NSCLC
RPMI-8226 leukemia = system: RPMI-8226 leukemia
RXF 393 renal = system: RXF 393 renal
U251 CNS = system: U251 CNS
SN12C renal = system: SN12C renal
HL-60(TB) leukemia = system: HL-60(TB) leukemia
MCF7 breast = system: MCF7 breast
SW-620 colon = system: SW-620 colon
COLO 205 colon = system: COLO 205 colon
HCT-15 colon = system: HCT-15 colon
MDA-MB-435 = system: MDA-MB-435
CCRF-CEM leukemia = system: CCRF-CEM leukemia
SF-268 CNS = system: SF-268 CNS
T-47D breast = system: T-47D breast
SK-MEL-28 melanoma = system: SK-MEL-28 melanoma
A498 renal = system: A498 renal
OVCAR-3 ovarian = system: OVCAR-3 ovarian
HOP-62 NSCLC = system: HOP-62 NSCLC
OVCAR-4 ovarian = system: OVCAR-4 ovarian
MOLT-4 leukemia = system: MOLT-4 leukemia
HCC-2998 colon = system: HCC-2998 colon
LOX IMVI melanoma = system: LOX IMVI melanoma
TK-10 renal = system: TK-10 renal

## CC(NC(=O)C(C)C(=O)Nc1ccc(C(F)(F)F)cc1)C(N)=O (stereo not drawn)
MDA-N
  TGI: > 100 µM
786-0 renal
  TGI: > 100 µM
UO-31 renal
  TGI: > 100 µM
CAKI-1 renal
  TGI: > 100 µM
KM12 colon
  TGI: > 100 µM
SK-OV-3 ovarian
  TGI: > 100 µM
SF-295 CNS
  TGI: > 100 µM
NCI/ADR-RES ovarian
  TGI: > 100 µM
SNB-75 CNS
  TGI: > 100 µM
SK-MEL-2 melanoma
  TGI: > 100 µM
UACC-257 melanoma
  TGI: > 100 µM
NCI-H460 lung
  TGI: > 100 µM
PC-3 prostate
  TGI: > 100 µM
ACHN renal
  TGI: > 100 µM
NCI-H23 lung
  TGI: > 100 µM
HOP-92 NSCLC
  TGI: > 100 µM
DU-145 prostate
  TGI: > 100 µM
MALME-3M melanoma
  TGI: > 100 µM
NCI-H226 lung
  TGI: > 100 µM
HS 578T breast
  TGI: > 100 µM
MDA-MB-231 breast
  TGI: > 100 µM
HCT-116 colon
  TGI: > 100 µM
A549 NSCLC
  TGI: > 100 µM
SK-MEL-5 melanoma
  TGI: > 100 µM
IGROV1 ovarian
  TGI: > 100 µM
NCI-H522 lung
  TGI: > 100 µM
OVCAR-8 ovarian
  TGI: > 100 µM
OVCAR-5 ovarian
  TGI: > 100 µM
K-562 leukemia
  TGI: > 100 µM
SNB-19 CNS
  TGI: > 100 µM
BT-549 breast
  TGI: > 100 µM
UACC-62 melanoma
  TGI: > 100 µM
M14 melanoma
  TGI: > 100 µM
HT29 colon
  TGI: > 100 µM
SF-539 CNS
  TGI: > 100 µM
EKVX NSCLC
  TGI: > 100 µM
RPMI-8226 leukemia
  TGI: > 100 µM
RXF 393 renal
  TGI: > 100 µM
U251 CNS
  TGI: > 100 µM
SN12C renal
  TGI: > 100 µM
HL-60(TB) leukemia
  TGI: > 100 µM
MCF7 breast
  TGI: > 100 µM
SW-620 colon
  TGI: > 100 µM
COLO 205 colon
  TGI: > 100 µM
HCT-15 colon
  TGI: > 100 µM
MDA-MB-435
  TGI: > 100 µM
CCRF-CEM leukemia
  TGI: > 100 µM
SF-268 CNS
  TGI: > 100 µM
T-47D breast
  TGI: > 100 µM

## O=[N+]([O-])C(=C1NCCN1)/C(Cl)=C(/Cl)N1CCOCC1
MDA-N
  TGI: > 100 µM
786-0 renal
  TGI: > 100 µM
UO-31 renal
  TGI: > 100 µM
CAKI-1 renal
  TGI: > 100 µM
SK-MEL-28 melanoma
  TGI: > 100 µM
KM12 colon
  TGI: > 100 µM
SK-OV-3 ovarian
  TGI: > 100 µM
SF-295 CNS
  TGI: > 100 µM
NCI/ADR-RES ovarian
  TGI: > 100 µM
SNB-75 CNS
  TGI: > 100 µM
SK-MEL-2 melanoma
  TGI: > 100 µM
UACC-257 melanoma
  TGI: > 100 µM
NCI-H460 lung
  TGI: > 100 µM
PC-3 prostate
  TGI: > 100 µM
ACHN renal
  TGI: > 100 µM
NCI-H23 lung
  TGI: > 100 µM
DU-145 prostate
  TGI: > 100 µM
MALME-3M melanoma
  TGI: > 100 µM
NCI-H226 lung
  TGI: > 100 µM
HS 578T breast
  TGI: > 100 µM
A498 renal
  TGI: > 100 µM
MDA-MB-231 breast
  TGI: > 100 µM
HCT-116 colon
  TGI: > 100 µM
A549 NSCLC
  TGI: > 100 µM
OVCAR-8 ovarian
  TGI: > 100 µM
OVCAR-5 ovarian
  TGI: > 100 µM
K-562 leukemia
  TGI: > 100 µM
OVCAR-3 ovarian
  TGI: > 100 µM
SNB-19 CNS
  TGI: > 100 µM
BT-549 breast
  TGI: > 100 µM
UACC-62 melanoma
  TGI: > 100 µM
HOP-62 NSCLC
  TGI: > 100 µM
M14 melanoma
  TGI: > 100 µM
HT29 colon
  TGI: > 100 µM
SF-539 CNS
  TGI: > 100 µM
EKVX NSCLC
  TGI: > 100 µM
RPMI-8226 leukemia
  TGI: > 100 µM
OVCAR-4 ovarian
  TGI: > 100 µM
U251 CNS
  TGI: > 100 µM
SN12C renal
  TGI: > 100 µM
MOLT-4 leukemia
  TGI: > 100 µM
MCF7 breast
  TGI: > 100 µM
SW-620 colon
  TGI: > 100 µM
COLO 205 colon
  TGI: > 100 µM
HCT-15 colon
  TGI: > 100 µM
MDA-MB-435
  TGI: > 100 µM
CCRF-CEM leukemia
  TGI: > 100 µM
HCC-2998 colon
  TGI: > 100 µM
SF-268 CNS
  TGI: > 100 µM
T-47D breast
  TGI: > 100 µM

## COC(=O)[C@H](Cc1ccccc1)NC(=O)[C@H](Cc1ccccc1)NC(=O)CN1C(=O)[C@@H]2C3C=CC(C3)[C@@H]2C1=O
MDA-N
  TGI: 30.2 µM and 30.9 µM
786-0 renal
  TGI: 27.2 µM and 28.8 µM
UO-31 renal
  TGI: 42.3 µM and 32.1 µM
CAKI-1 renal
  TGI: 30.6 µM and 35.1 µM
SK-MEL-28 melanoma
  TGI: 35 µM and 35.7 µM
KM12 colon
  TGI: 33.9 µM and 41.7 µM
SK-OV-3 ovarian
  TGI: 31.7 µM
SF-295 CNS
  TGI: 35.5 µM and 36.6 µM
NCI/ADR-RES ovarian
  TGI: 53.9 µM and > 100 µM
SNB-75 CNS
  TGI: 34 µM and 33.7 µM
SK-MEL-2 melanoma
  TGI: 33 µM and 34.5 µM
LOX IMVI melanoma
  TGI: 33.3 µM and 32.2 µM
UACC-257 melanoma
  TGI: 30.9 µM and 33.6 µM
NCI-H460 lung
  TGI: 42.6 µM and 46.3 µM
PC-3 prostate
  TGI: 29 µM and 30 µM
ACHN renal
  TGI: 29.7 µM and 30.4 µM
NCI-H23 lung
  TGI: 32.1 µM and 33 µM
HOP-92 NSCLC
  TGI: 33.3 µM and 36.1 µM
DU-145 prostate
  TGI: 39.1 µM and 34.2 µM
TK-10 renal
  TGI: 31.2 µM and 38.6 µM
NCI-H226 lung
  TGI: 38.5 µM and 39.1 µM
HS 578T breast
  TGI: 38.2 µM and 38 µM
A498 renal
  TGI: 31.3 µM and 53 µM
MDA-MB-231 breast
  TGI: 31.5 µM and 32.4 µM
HCT-116 colon
  TGI: 27.3 µM and 30.2 µM
A549 NSCLC
  TGI: 45.9 µM and 44.1 µM
SK-MEL-5 melanoma
  TGI: 28.3 µM and 32.1 µM
IGROV1 ovarian
  TGI: 25.5 µM and 30.4 µM
NCI-H522 lung
  TGI: 27.8 µM and 31.8 µM
OVCAR-8 ovarian
  TGI: 27.9 µM and 33.8 µM
OVCAR-5 ovarian
  TGI: 43.1 µM and 41.7 µM
K-562 leukemia
  GI50: 7.26 µM and 17.5 µM
  TGI: 36.2 µM and 42.2 µM
OVCAR-3 ovarian
  TGI: 33.1 µM and 37 µM
SNB-19 CNS
  TGI: 36.6 µM and 39.9 µM
BT-549 breast
  TGI: 32.1 µM and 30.2 µM
UACC-62 melanoma
  TGI: 30 µM and 30.2 µM
HOP-62 NSCLC
  TGI: 38.5 µM and 39.8 µM
M14 melanoma
  TGI: 41.4 µM and 40.4 µM
HT29 colon
  TGI: 38.4 µM and 42.1 µM
SF-539 CNS
  TGI: 32 µM and 33.3 µM
EKVX NSCLC
  TGI: 35.1 µM and 37.3 µM
RPMI-8226 leukemia
  TGI: 38.3 µM and 52 µM
RXF 393 renal
  TGI: 36.2 µM and 35 µM
OVCAR-4 ovarian
  TGI: 31.2 µM and 37.5 µM
U251 CNS
  TGI: 30 µM and 33.2 µM
SN12C renal
  TGI: 32.9 µM and 30.6 µM
MOLT-4 leukemia
  TGI: 5.2 µM and 8.67 µM
HL-60(TB) leukemia
  TGI: 40.8 µM and 33.5 µM
MCF7 breast
  TGI: 34.1 µM and 31.7 µM
SW-620 colon
  TGI: 40.8 µM and 48.5 µM
COLO 205 colon
  TGI: 29.7 µM and 30.9 µM
HCT-15 colon
  TGI: 31.2 µM and 33.1 µM
MDA-MB-435
  TGI: 28.7 µM and 32 µM
CCRF-CEM leukemia
  GI50: 7.9 µM and 19.9 µM
  TGI: 39.1 µM and 57.3 µM
HCC-2998 colon
  TGI: 30.8 µM and 31 µM
SF-268 CNS
  TGI: 26.3 µM and 31.5 µM
T-47D breast
  TGI: 47.2 µM and 49 µM
